In patent publication US5519010A, “Sulfated polysaccharide, pharmaceutically acceptable salt thereof, process for preparing same and medicament containing same as effective component” (Taiho Pharmaceutical Co., Ltd., priority 1989, dated 1996):

Key:
[1] = test system: DIC model (thrombin injected into ICR mice); assay: Effect on DIC model (thrombin-induced fatality, survival rate); assay type: in vivo; settings: dose 1 mg/kg i.v. one minute before 800 U/kg thrombin; after 24 hours
Experimental: D-HG, FGAG and heparin were tested for an effect on DIC model in accordance with the method described in Japan J. Pharmacol, 35, 203-227 (1984).
Used as D-HG was the sodium salt obtained in Example 16, as FGAG the sodium/potassium salt obtained in Reference Example 1 and as a heparin a sodium salt having a potency of 185.6 U/mg.
A 800 U/kg of thrombin was intravenously injected into ICR mice (10 to 15 mice a group). […] The D-HG sodium salt, FGAG sodium/potassium salt or heparin sodium salt was intravenously injected one minute before the administration of thrombin.

[2] = test system: citric acid-containing plasma (activated partial thromboplastin time); assay: Anti-coagulation activity in human: x2APTT; assay type: biochemical; settings: concentration required to double APTT of control
From the text: (§1) Using the citric acid-containing plasma obtained from more than 6 normal persons, the D-HG sodium salt (Example 16), a FGAG sodium/potassium salt and a heparin sodium salt were each observed for the activity in respect of anticoagulation parameters (μg/ml).

thrombin = assay: Anti-coagulation activity in human: IIaIC90 (thrombin time); assay type: biochemical; settings: concentration for 90% inhibition of thrombin activity, from thrombin time; human plasma
Experimental: as §1
IIaIC90 is a concentration (μg/ml) for 90% inhibition of thrombin activity which was calculated by measuring the activity to prolong the thrombin time.

factor X = assay: Anti-coagulation activity in human: XaIC50 (decomposition of synthetic substrate S2222); assay type: biochemical; settings: 50% inhibition of decomposition of synthetic substrate S2222
From the text: as §1
XaIC50 is a medicament concentration (μg/ml) for 50% inhibition of decomposition of synthetic substrate S2222 with a factor X.

factor VIII = assay: Anti-coagulation activity in human: VIII IC80 (factor VIII deficient plasma); assay type: biochemical; settings: 80% inhibition of factor VIII, contact-activated coagulation time
Experimental: as §1
VIII IC80 is a medicament concentration (μg/ml) for 80% inhibition of factor VIII which was calculated by measuring the activity to prolong the contact-activated coagulation time in the presence of a small amount of factor VIII using a factor VIII deficient plasma.

[3] = test system: thrombin generation (inactivation of prothrombin in contact-activated plasma); assay: Anti-coagulation activity in human: IIaGI (thrombin generation); assay type: biochemical; settings: concentration required to double control's time for complete inactivation of prothrombin in contact-activated plasma
From the text: as §1
IIaGI is the concentration (μg/ml) required to double the control's time for complete inactivation of prothrombin in the contact-activated plasma. This represents an activity to inhibit the thrombin generation.

[4] = test system: plasma-free washed platelet; assay: Inhibitory activity against thrombin-induced platelets aggregation; assay type: cell-based; settings: 3 μg/ml; 0.1 U/ml thrombin; rabbit washed platelets (control 86.6)
Experimental: The result of addition of the D-HG sodium salt obtained in Example 16 or a heparin sodium salt having a potency of 185.6 U/mg was evaluated by observing the aggregation of platelets (expressed in an increase of light transmittance) caused by the addition of 0.1 U/ml of thrombin to a suspension of plasma-free washed platelet obtained from a rabbit.

heparin [Heparin sodium salt]
Survival rate [1]: 80%
x2APTT [2]: 1.2 µg/mL
IIaIC90 (thrombin): 0.3 µg/mL
XaIC50 (factor X): 3.4 µg/mL
VIII IC80 (factor VIII): 0.79 µg/mL
IIaGI [3]: 1.2 µg/mL
Light transmittance [4]: 80.2%
